Reference: patent US20110190348A1, “METHODS FOR TREATING CNS DISORDERS” (priority 2008, published 2011)

Experiments:
[1] = test system: Male NMRI mice; assay: Forced swimming test (FST); format: in vivo; details: doses of 5 and 10 mg/kg p.o., may be a false positive from nonspecific stimulatory effect
Protocol: The aim of this study was to evaluate the antidepressant activity of radiprodil. The forced swimming test is a behavioral assay that can be used to predict antidepressant efficacy of drugs in humans.
(§1) Male NMRI mice weighing 24-26 g were used. The animals were kept in polycarbonate cages in a thermostatically controlled room at 24+2° C. and at a relative humidity (RH) of 50±10%. The room was artificially illuminated from 6 am to 6 pm and the mice were given commercial pellet rat-mouse feed, autoclaved at 105° C. and sterile filtered tap water, ad libitum.
(§2) An aqueous solution of radiprodil, in the form of a complex with heptakis(2,6-di-O-methyl)-β-cyclodextrin(DIMEB), was administered orally at doses of 2.5, 5 and 10 mg/kg (calculated for non-complexed radiprodil). […]
The forced swimming test (FST) was measured in glass cylinders (height: […], diameter 14 cm) containing 12 cm of water, maintained at 23-25° C. […] The duration of immobility was recorded using a stopwatch. […]
In the forced swimming test, the mean±standard error on the mean (s.e.m) immobility time in seconds was measured. […] The mean (±s.e.m) “FST-activity” value was also calculated for each group and submitted to the same data analysis process as the immobility data.
The significance of the drug effect was determined by ANOVA followed by post-hoc Duncan-test. […]

[2] = test system: Male NMRI mice; assay: Spontaneous locomotor activity; format: in vivo; details: doses of 5 and 10 mg/kg p.o.
Protocol: as §1, §2
Spontaneous locomotor activity was measured in a four-channel activity monitor manufactured by Farmakotechnika (Hungary). […] The photocell beam, when broken, signaled a count, which was then recorded by a computer.
Each group consisted of 10 animals. […] The horizontal and vertical movements were determined as the number of beam interruptions collected in 15 minute intervals throughout the 1 hour period.
In the spontaneous locomotor activity test, the mean (±s.e.m) value of one hour horizontal activity data (in counts) of each group was calculated.
The significance of the drug effect was determined by ANOVA followed by post-hoc Duncan-test. The percentage change in the horizontal activity, immobility or “FST-activity” variables were calculated for each dose according to the equation; […]

## O=C(Nc1ccc2[nH]c(=O)oc2c1)C(=O)N1CCC(Cc2ccc(F)cc2)CC1 [radiprodil, 2-[4-(4-fluoro-benzyl)-piperidine-1-yl]-2-oxo-N-(2-oxo-2,3-dihydro-benzoxazol-6-yl)acetamide]
[1]
  effect in the forced swimming test (in words): significant effects
[2]
  effect on spontaneous motor activity (in words): stimulated the spontaneous motor activity
